Patent publication US7767455B2, “Nucleus export reporter system” (priority 2000, dated 2010)

Legend:
[1] = system: Rev-mediated nuclear export; experiment: Inhibition of Rev-dependent GFP expression of the UTR-hivGFP-RRE reporter in transfected H1299 cells (Western blot); assay type: cell-based, human; conditions: 5 nM LMB in the medium 24 h before harvesting, Rev cotransfected, FIG. 5B
[2] = system: huGFP reporter; experiment: Expression of the Rev-independent huGFP reporter in transfected H1299 cells (Western blot); assay type: cell-based, human; conditions: 5 nM LMB in the medium 24 h before harvesting, FIG. 5B

CCC(=C/[C@H](C)C/C=C/C(C)=C/[C@@H](C)C(=O)[C@@H](C)[C@H](O)[C@@H](C)C/C(C)=C/C(=O)O)/C=C/[C@@H]1OC(=O)C=C[C@@H]1C [LMB, Leptomycin B]
expression of the Rev-dependent GFP reporter [1]: inhibit
expression of the huGFP reporter [2]: not the expression of the huGFP reporter
